Here are results for two compounds from BindingDB's records for doi:10.1016/s0960-894x(00)00030-5 (Yoshitomi Pharmaceutical Industries, 2000).

This experiment concerns the target D(2) dopamine receptor (Homo sapiens, UniProt P14416). The experiment in a line: ChEBML_61120. The text has this: Binding affinity for Dopamine receptor D2 by displacement of [3H]-spiperone

Chain of D(2) dopamine receptor (P14416 whole entry): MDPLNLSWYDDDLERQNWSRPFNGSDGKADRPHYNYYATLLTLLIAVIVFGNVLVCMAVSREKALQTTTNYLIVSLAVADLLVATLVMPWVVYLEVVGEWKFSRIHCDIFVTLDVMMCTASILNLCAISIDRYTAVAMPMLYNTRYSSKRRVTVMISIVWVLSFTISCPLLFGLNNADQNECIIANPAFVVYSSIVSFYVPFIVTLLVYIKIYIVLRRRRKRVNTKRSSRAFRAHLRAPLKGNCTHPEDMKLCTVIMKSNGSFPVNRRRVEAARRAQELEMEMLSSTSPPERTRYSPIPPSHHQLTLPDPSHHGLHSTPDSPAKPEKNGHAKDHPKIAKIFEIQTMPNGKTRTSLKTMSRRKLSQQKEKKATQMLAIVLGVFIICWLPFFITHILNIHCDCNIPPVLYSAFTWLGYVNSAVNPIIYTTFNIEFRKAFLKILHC

On to `CN1CCOc2c(C(=O)NC[C@@H]3CCCN3CCc3ccccc3)cc(Cl)cc21` [6-Chloro-4-methyl-3,4-dihydro-2H-benzo[1,4]oxazine-8-carboxylic acid ((S)-1-phenethyl-pyrrolidin-2-ylmethyl)-amide], for which the Ki was 800 nM.
As to `CN1CCOc2c(C(=O)NC[C@H]3CCCN3CCc3ccccc3)cc(Cl)cc21` [6-Chloro-4-methyl-3,4-dihydro-2H-benzo[1,4]oxazine-8-carboxylic acid ((R)-1-phenethyl-pyrrolidin-2-ylmethyl)-amide], the affinity corresponds to a Ki of 57 nM.
